Assay results from the supplement of paper PMC6045584.
± gives the standard deviation of the averaged measurements.

Key:
[1] = compound: CC(=O)O[C@H]1C(=O)[C@@]2(C)[C@H]([C@H](OC(=O)c3ccccc3)[C@]3(O)C[C@H](OC(=O)[C@H](O)[C@@H](NC(=O)c4ccccc4)c4ccccc4)C(C)=C1C3(C)C)[C@]1(OC(C)=O)CO[C@@H]1C[C@@H]2O [PACLITAXEL]; experiment: surviving fraction relative to DMSO-only wells; higher = less growth inhibition; settings: exposure time: 5 days
In short: (§1)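 Tumour cell lines were grown to log phase and seeded at 250–500 cells per well in 384-well plates. They were exposed continuously to inhibitors at 0.5, 1, 5, 10, 50, 100, 500 and 1000 nM for five days, beginning 24 hours after seeding. Surviving fraction is CellTiter-Glo luminescence normalised to the median of DMSO-only wells.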

[2] = compound: O=C(O)C1(C(=O)O)CCC1.[NH2-].[NH2-].[Pt+2] [CARBOPLATIN]; experiment: as above; settings: exposure time: 5 days
In short: as §1

Row | Test System | surviving fraction ([1]; 0.5 nM) | surviving fraction ([1]; 1 nM) | surviving fraction ([1]; 5 nM) | surviving fraction ([1]; 10 nM) | surviving fraction ([1]; 50 nM) | surviving fraction ([1]; 100 nM) | surviving fraction ([1]; 500 nM) | surviving fraction ([1]; 1000 nM) | surviving fraction ([2]; 0.5 nM) | surviving fraction ([2]; 1 nM) | surviving fraction ([2]; 5 nM) | surviving fraction ([2]; 10 nM) | surviving fraction ([2]; 50 nM) | surviving fraction ([2]; 100 nM) | surviving fraction ([2]; 500 nM) | surviving fraction ([2]; 1000 nM)
1 | 93VU HEADNECK | 0.972 ± 0.067 | 0.752 ± 0.059 | 0.326 ± 0.015 | 0.266 ± 0.014 | 0.157 ± 0.011 | 0.134 ± 0.0064 | 0.135 ± 0.018 | 0.132 ± 0.0017 | 1.19 ± 0.012 | 1.13 ± 0.055 | 1.26 ± 0.097 | 1.24 ± 0.21 | 1.27 ± 0.091 | 1.28 ± 0.09 | 1.19 ± 0.027 | 1.21 ± 0.1
2 | S68 BREAST | 0.815 ± 0.052 | 0.575 ± 0.13 | 0.197 ± 0.045 | 0.134 ± 0.026 | 0.14 ± 0.0047 | 0.144 ± 0.025 | 0.114 ± 0.0076 | 0.122 ± 0.0061 | 1.08 ± 0.28 | 1.01 ± 0.082 | 0.9 ± 0.16 | 1.4 ± 0.15 | 1.22 ± 0.6 | 1.14 ± 0.38 | 1.11 ± 0.21 | 1.29 ± 0.11
3 | KPD BONE | 0.909 ± 0.093 | 0.889 ± 0.062 | 0.387 ± 0.029 | 0.365 ± 0.044 | 0.338 ± 0.015 | 0.315 ± 0.025 | 0.327 ± 0.011 | 0.313 ± 0.026 | 1.02 ± 0.032 | 1.07 ± 0.065 | 1.12 ± 0.033 | 1.05 ± 0.051 | 1.09 ± 0.02 | 1.1 ± 0.05 | 1.04 ± 0.084 | 1.03 ± 0.016
4 | SAOS2 BONE | 1.08 ± 0.043 | 1.06 ± 0.018 | 0.46 ± 0.043 | 0.165 ± 0.013 | 0.0527 ± 0.004 | 0.0527 ± 0.00058 | 0.0447 ± 0.0063 | 0.0557 ± 0.0063 | 1.1 ± 0.048 | 1.18 ± 0.014 | 1.18 ± 0.059 | 1.16 ± 0.073 | 1.15 ± 0.051 | 1.06 ± 0.11 | 1.09 ± 0.097 | 0.943 ± 0.22
5 | CME SYNOVIAL | 1.07 ± 0.11 | 0.933 ± 0.11 | 0.524 ± 0.12 | 0.279 ± 0.073 | 0.258 ± 0.02 | 0.219 ± 0.028 | 0.2 ± 0.041 | 0.262 ± 0.02 | 1.25 ± 0.15 | 1.36 ± 0.039 | 1.4 ± 0.047 | 1.48 ± 0.061 | 1.35 ± 0.16 | 1.42 ± 0.024 | 1.3 ± 0.14 | 1.39 ± 0.082
6 | MHM BONE | 0.9897 ± 0.0049 | 0.992 ± 0.053 | 0.535 ± 0.021 | 0.339 ± 0.022 | 0.243 ± 0.0095 | 0.216 ± 0.011 | 0.187 ± 0.0059 | 0.177 ± 0.01 | 1.01 ± 0.027 | 1.02 ± 0.025 | 1.08 ± 0.044 | 1.06 ± 0.058 | 1.09 ± 0.014 | 1.07 ± 0.028 | 1.02 ± 0.04 | 1.035 ± 0.0078
7 | HSSYII SYNOVIAL | 0.836 ± 0.0087 | 0.558 ± 0.021 | 0.0827 ± 0.011 | 0.0622 ± 0.0043 | 0.0613 ± 0.0025 | 0.0585 ± 0.0041 | 0.049 ± 0.0033 | 0.0538 ± 0.0021 | 0.965 ± 0.035 | 0.957 ± 0.015 | 0.975 ± 0.023 | 0.963 ± 0.089 | 0.965 ± 0.05 | 0.97 ± 0.016 | 0.959 ± 0.037 | 0.958 ± 0.089
8 | MDAMB468 BREAST | 0.973 ± 0.024 | 0.771 ± 0.056 | 0.144 ± 0.018 | 0.0737 ± 0.0015 | 0.064 ± 0.001 | 0.0567 ± 0.0091 | 0.057 ± 0.0036 | 0.0563 ± 0.013 | 0.973 ± 0.031 | 0.96 ± 0.067 | 1.07 ± 0.032 | 0.991 ± 0.046 | 1.1 ± 0.1 | 1.02 ± 0.019 | 1.08 ± 0.063 | 0.975 ± 0.072
9 | SG43 HEADNECK | 0.793 ± 0.2 | 0.849 ± 0.078 | 0.588 ± 0.022 | 0.619 ± 0.067 | 0.471 ± 0.0079 | 0.467 ± 0.091 | 0.477 ± 0.07 | 0.433 ± 0.038 | 1.14 ± 0.14 | 1.13 ± 0.3 | 0.915 ± 0.18 | 1.15 ± 0.23 | 0.826 ± 0.071 | 0.996 ± 0.19 | 0.994 ± 0.16 | 1.07 ± 0.14
10 | HCC38 BREAST | 0.894 ± 0.17 | 0.492 ± 0.062 | 0.138 ± 0.03 | 0.11 ± 0.0059 | 0.112 ± 0.053 | 0.094 ± 0.026 | 0.108 ± 0.0074 | 0.0823 ± 0.0076 | 1.07 ± 0.18 | 0.841 ± 0.19 | 1.34 ± 0.44 | 1.15 ± 0.15 | 0.944 ± 0.04 | 0.919 ± 0.13 | 0.962 ± 0.086 | 1 ± 0.12
11 | SYO1 SYNOVIAL | 0.828 ± 0.041 | 0.592 ± 0.015 | 0.107 ± 0.0096 | 0.0752 ± 0.0059 | 0.056 ± 0.0057 | 0.0522 ± 0.0059 | 0.0456 ± 0.0087 | 0.048 ± 0.009 | 1.04 ± 0.028 | 0.986 ± 0.023 | 1.06 ± 0.027 | 0.9793 ± 0.0044 | 0.998 ± 0.019 | 1.01 ± 0.035 | 0.99 ± 0.065 | 0.972 ± 0.028
12 | SNU475 LIVER | 0.8 ± 0.034 | 0.649 ± 0.026 | 0.282 ± 0.018 | 0.2 ± 0.023 | 0.142 ± 0.014 | 0.138 ± 0.0065 | 0.132 ± 0.029 | 0.137 ± 0.008 | 1.04 ± 0.088 | 1.06 ± 0.038 | 1.07 ± 0.041 | 1.05 ± 0.037 | 1.02 ± 0.075 | 1.05 ± 0.043 | 1.01 ± 0.04 | 1.04 ± 0.036
13 | CAL120 BREAST | 0.744 ± 0.044 | 0.602 ± 0.022 | 0.158 ± 0.014 | 0.0937 ± 0.005 | 0.105 ± 0.003 | 0.0962 ± 0.0023 | 0.0798 ± 0.0061 | 0.0923 ± 0.007 | 1.02 ± 0.044 | 0.927 ± 0.023 | 1.02 ± 0.04 | 0.977 ± 0.027 | 1.02 ± 0.044 | 0.993 ± 0.033 | 0.986 ± 0.04 | 0.976 ± 0.034
14 | YAMATO SYNOVIAL | 1.04 ± 0.16 | 0.891 ± 0.036 | 0.488 ± 0.069 | 0.464 ± 0.043 | 0.377 ± 0.012 | 0.359 ± 0.021 | 0.346 ± 0.0061 | 0.426 ± 0.016 | 1.17 ± 0.066 | 1.33 ± 0.069 | 1.34 ± 0.11 | 1.31 ± 0.051 | 1.34 ± 0.029 | 1.29 ± 0.11 | 1.248 ± 0.0092 | 1.29 ± 0.051
15 | SCC36 HEADNECK | 0.966 ± 0.035 | 0.8 ± 0.0036 | 0.246 ± 0.041 | 0.154 ± 0.042 | 0.103 ± 0.007 | 0.109 ± 0.026 | 0.108 ± 0.006 | 0.114 ± 0.017 | 1.07 ± 0.03 | 0.992 ± 0.15 | 1.09 ± 0.096 | 1.07 ± 0.097 | 1.06 ± 0.17 | 1.04 ± 0.078 | 1.05 ± 0.031 | 0.85 ± 0.12
16 | CCK81 LARGE INTESTINE | – | – | – | – | – | – | – | – | 0.883 ± 0.042 | 0.866 ± 0.092 | 0.835 ± 0.083 | 0.831 ± 0.093 | 0.77 ± 0.038 | 0.782 ± 0.081 | 0.784 ± 0.082 | 0.725 ± 0.043
